The text below walks through data of publication PMC12228718, “A porin-like protein used by bacterial predators defines a wider lipid-trapping superfamily” (Nature Communications, 2025).

The target in assay [1] is PopAhis (mature PopA with an internal His tag in loop 2), natively folded (B. bacteriovorus HD100). Description: cryo-EM structure; native PopAhis, 0.02 mg/mL in 50 mM Tris pH 8, 150 mM NaCl, 0.03% w/v DDM; 2.85 Å in C1 symmetry, 2.66 Å in C5 symmetry.
The target in assay [2] is PopAΔSP (Bd0427, aa 21-353), refolded (B. bacteriovorus HD100). Description: crystal structure; refolded PopAΔSP in β-OG detergent; C222(1) crystal form, 2.8 Å; five copies in the asymmetric unit.
In the next assay the target is T1, PopAhis (Bdellovibrio bacteriovorus, UniProt Q6MQN4).
T1 construct: gene Bd0427; mature PopA with internal His tag SSHHHHHHGSS inserted after A103 (loop 2); pelB leader at start; pET29b, E. coli BL21(DE3) RIPL; native folded, DDM-solubilised; homopentamer
T1 sequence (Q6MQN4 entry or part of it): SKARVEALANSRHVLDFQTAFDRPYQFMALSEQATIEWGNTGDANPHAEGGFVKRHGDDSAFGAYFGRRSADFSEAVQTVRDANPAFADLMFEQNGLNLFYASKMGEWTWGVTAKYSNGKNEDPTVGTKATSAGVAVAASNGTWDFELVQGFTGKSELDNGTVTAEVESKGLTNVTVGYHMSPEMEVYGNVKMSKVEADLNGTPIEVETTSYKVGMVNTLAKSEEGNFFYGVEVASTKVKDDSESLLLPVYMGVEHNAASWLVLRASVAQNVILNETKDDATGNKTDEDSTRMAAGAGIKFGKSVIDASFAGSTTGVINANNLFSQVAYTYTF
Description: liposome swelling assay (OD400). The following applies: relative to OmpF with L-arabinose = 100%; pH 7.0 proteoliposomes; passive permeation. In kind it is biochemical.

The target of a further assay is T2, PopA (Bd0427; PopAΔSP) (Bdellovibrio bacteriovorus, UniProt Q6MQN4).
T2 construct: aa 21-353, signal peptide removed; selenomethionyl form A phased; homopentamer
T2 sequence (Q6MQN4 entry or part of it, stated change not applied): as the sequence (Q6MQN4 entry or part of it) above
The assay can be described thus: X-ray crystallography (C222_[…] Å). In kind it is binding. The following applies: palmitate modelled in difference density behind loop 2 helix, carboxylate to R88; ligand not added, placed after AlphaFold3 suggestion.

In assay [1], “PopAhis (mature PopA with an internal His tag in loop 2), natively folded (natural protein)” yielded a stoichiometry N of 5.

“PopAΔSP (Bd0427, aa 21-353), refolded (natural protein)”: the stoichiometry N in assay [2] came out at 5.

Consider `C[C@H](N)C(=O)O` [alanine], for which the relative swelling rate entry at PopAhis is “only able to permit the passage of small substrates, notably glycine and alanine (Fig. 3e)”.

Turning to `NCC(=O)O` [glycine], the relative swelling rate entry at PopAhis is “only able to permit the passage of small substrates, notably glycine and alanine (Fig. 3e)”.

With `CCCCCCCCCCCCCCCC(=O)O` [palmitate], the “X-ray crystallography (C222_1, 2.8 Å)” value at PopA (Bd0427; PopAΔSP) is “Refinement verified that palmitate fits the density well (Fig. 2h)”.

Broadly, the stoichiometry N is a count of units in the complex or per binding partner.
